This experiment relates to ApoE-KO mice. Description: Test Example 2: influence of EMIQ and QC on atherosclerosis, thoracic-abdominal aortic lesion area. It is filed as in vivo. The settings on record: low dose 33 μmol/kg in feed, 14 weeks, versus control group (G1), FIG. 2.

Structures are written as SMILES.

Protocol: The EMIQ prepared in Preparation Example 2 and the QC prepared in Preparation Example 3 were orally administered for 14 weeks to ApoE-KO mice in order to elucidate the atherosclerosis progression inhibiting effect of these substances. The atherosclerosis progression inhibiting effect was evaluated based on the atherosclerotic lesion area rate (%) at the thoracic-abdominal aorta of the ApoE-KO mice.
Specifically, before the test the test animals (ApoE-KO mice) were housed for 11 days for environmental acclimation and were then assigned, taking into consideration the body weight and total serum cholesterol (T-cho value), into the following four groups (8 animals in each group) in a completely randomized design using a group assignment system (Statlight #11 Group Assignment, Yukms Co., Ltd., Tokyo): the control group (a group not receiving either substance, G1), a group receiving quercetin admixed in the feed at 33 μmol/kg (low-dose QC group, G2), a group receiving EMIQ admixed in the feed at 33 μmol/kg (low-dose EMIQ group, G3), and a group receiving EMIQ admixed in the feed at 330 μmol/kg (high-dose EMIQ group, G4). […]

For `O=c1c(O)c(-c2ccc(O)c(O)c2)oc2cc(O)cc(O)c12` [QC, quercetin], the “thoracic-abdominal aortic atherosclerotic lesion area rate (%)” value was “no difference”.

Source of the values: patent US20080182893A1, “Anti-Atherogenic Composition” (SAN-EI GEN F.F.I., INC., priority 2005, published 2008).
